From PubChem BioAssay AID248 (DTP/NCI, 2004)
Values joined by “and” are separate entries in the source; they are usually repeats but may differ in a detail not shown here. Equal values may be shown once. Toxic doses and inconclusive results are not listed. No stated cut-off is given here; in the data, active means T/C of 150% or more; inactive means T/C below 125%.

System: L1210 leukemia ip in BDF1 mice, survival T/C
Assay: NCI In Vivo Anticancer Drug Screen. Data for tumor model L1210 Leukemia (intraperitoneal) in B6D2F1 (BDF1) mice
Settings: endpoint: mean survival time, higher = longer survival
Method in brief: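 Survival endpoint. Drug-treated group vs vehicle group, expressed as T divided by C. Tumor passaged by transplantation.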

[1] = dose: 100.0 mg/kg/injection, schedule: Q04DX003 (ip), vehicle: saline with Tween-80
[2] = dose: 200.0 mg/kg/injection, schedule: Q04DX003 (ip), vehicle: saline with Tween-80
[3] = dose: 400.0 mg/kg/injection, schedule: Q04DX003 (ip), vehicle: saline with Tween-80
[4] = dose: 50.0 mg/kg/injection, schedule: Q01DX009 (ip), vehicle: saline with Tween-80
[5] = dose: 100.0 mg/kg/injection, schedule: Q01DX009 (ip), vehicle: saline with Tween-80
[6] = dose: 20.0 mg/kg/injection, schedule: Q04DX003 (ip), vehicle: saline
[7] = dose: 100.0 mg/kg/injection, schedule: Q01DX001 (ip), vehicle: saline
[8] = dose: 200.0 mg/kg/injection, schedule: Q01DX001 (ip), vehicle: saline
[9] = dose: 400.0 mg/kg/injection, schedule: Q01DX001 (ip), vehicle: saline
[10] = dose: 100.0 mg/kg/injection, schedule: Q04DX003 (ip), vehicle: saline
[11] = dose: 200.0 mg/kg/injection, schedule: Q04DX003 (ip), vehicle: saline
[12] = dose: 400.0 mg/kg/injection, schedule: Q04DX003 (ip), vehicle: saline
[13] = dose: 100.0 mg/kg/injection, schedule: Q04DX002 (ip), vehicle: Klucel (hydroxypropylcellulose) (HPC)
[14] = dose: 200.0 mg/kg/injection, schedule: Q04DX002 (ip), vehicle: Klucel (hydroxypropylcellulose) (HPC)
[15] = dose: 400.0 mg/kg/injection, schedule: Q04DX002 (ip), vehicle: Klucel (hydroxypropylcellulose) (HPC)
[16] = dose: 50.0 mg/kg/injection, schedule: Q04DX003 (ip), vehicle: saline with Tween-80

Measured: T/C

O=C1NC(=O)C2CCCCC12 (configuration not stated)
inactive: dose: 100.0 mg/kg/injection, schedule: Q04DX002 (ip), vehicle: saline with Tween-80 90 % of control | [1] 96 % of control | dose: 200.0 mg/kg/injection, schedule: Q04DX002 (ip), vehicle: saline with Tween-80 121 % of control | [2] 104 % of control | dose: 400.0 mg/kg/injection, schedule: Q04DX002 (ip), vehicle: saline with Tween-80 107 % of control | [3] 104 % of control

CCCC/C=C/C(C)O (configuration not stated)
inactive: [4] 101 % of control | [5] 105 % of control | dose: 200.0 mg/kg/injection, schedule: Q01DX009 (ip), vehicle: saline with Tween-80 97 % of control

CC(=O)Nc1c(C)cc(C)cc1C
inactive: dose: 50.0 mg/kg/injection, schedule: Q01DX009 (ip), vehicle: Klucel (hydroxypropylcellulose) (HPC) 105 % of control | dose: 100.0 mg/kg/injection, schedule: Q01DX009 (ip), vehicle: Klucel (hydroxypropylcellulose) (HPC) 106 % of control | dose: 100.0 mg/kg/injection, schedule: Q04DX003 (ip), vehicle: Klucel (hydroxypropylcellulose) (HPC) 96 % of control | dose: 200.0 mg/kg/injection, schedule: Q01DX009 (ip), vehicle: Klucel (hydroxypropylcellulose) (HPC) 103 % of control | dose: 200.0 mg/kg/injection, schedule: Q04DX003 (ip), vehicle: Klucel (hydroxypropylcellulose) (HPC) 102 % of control | dose: 400.0 mg/kg/injection, schedule: Q01DX009 (ip), vehicle: Klucel (hydroxypropylcellulose) (HPC) 103 % of control | dose: 400.0 mg/kg/injection, schedule: Q04DX003 (ip), vehicle: Klucel (hydroxypropylcellulose) (HPC) 104 % of control

c1ccc(B2Nc3ccccc3-c3ccccc32)cc1
inactive: [1] 98 % of control | [2] 96 % of control | [3] 98 % of control

Cc1cc2c3ccc(C)[n+](C)c3ccc2n1C
inactive: dose: 1.25 mg/kg/injection, schedule: Q01DX009 (ip), vehicle: saline 109 % of control | dose: 2.5 mg/kg/injection, schedule: Q01DX009 (ip), vehicle: saline 115 % of control | dose: 2.5 mg/kg/injection, schedule: Q04DX003 (ip), vehicle: saline 112 % of control | dose: 5.0 mg/kg/injection, schedule: Q01DX009 (ip), vehicle: saline 115 % of control | dose: 5.0 mg/kg/injection, schedule: Q04DX003 (ip), vehicle: saline 110 % of control | dose: 9.5 mg/kg/injection, schedule: Q01DX001 (ip), vehicle: saline 106 % of control | dose: 10.0 mg/kg/injection, schedule: Q04DX003 (ip), vehicle: saline 112 % of control | [6] 103 % of control

CCNC1(c2cccs2)CCCCC1=O (configuration not stated)
inactive: [6] 102 % of control | dose: 40.0 mg/kg/injection, schedule: Q04DX003 (ip), vehicle: saline 104 % of control | dose: 80.0 mg/kg/injection, schedule: Q04DX003 (ip), vehicle: saline 102 % of control

CCCCCCCC/C=C\CCCCCCCC(=O)O.[Fe]
inactive: [7] 93 % of control | [8] 95 % of control | [9] 90 % of control

O=C(Nc1ccc(C2=NCCCCN2)cc1)c1ccc(C(=O)Nc2ccc(C3=NCCCCN3)cc2)c(Cl)c1
inactive: dose: 0.12 mg/kg/injection, schedule: Q01DX015 (ip), vehicle: water 101 % of control | dose: 0.25 mg/kg/injection, schedule: Q01DX015 (ip), vehicle: water 101 % of control | dose: 0.5 mg/kg/injection, schedule: Q01DX015 (ip), vehicle: water 100 % of control and 101 % of control | dose: 0.75 mg/kg/injection, schedule: Q01DX015 (ip), vehicle: water 103 % of control

O=C1CNC(=O)CN1
inactive: dose: 75.0 mg/kg/injection, schedule: Q01DX009 (ip), vehicle: saline 94 % of control | [10] 103 % of control | dose: 150.0 mg/kg/injection, schedule: Q01DX009 (ip), vehicle: saline 92 % of control | [11] 106 % of control | dose: 300.0 mg/kg/injection, schedule: Q01DX009 (ip), vehicle: saline 94 % of control | [12] 100 % of control

O=[N+]([O-])c1cc(C(F)(F)F)cc([N+](=O)[O-])c1N/N=C/c1ccc(Cl)cc1
inactive: dose: 12.5 mg/kg/injection, schedule: Q01DX009 (ip), vehicle: carboxymethylcellulose (CMC) 95 % of control and 102 % of control | dose: 25.0 mg/kg/injection, schedule: Q01DX009 (ip), vehicle: carboxymethylcellulose (CMC) 97 % of control and 88 % of control | dose: 100.0 mg/kg/injection, schedule: Q01DX001 (ip), vehicle: carboxymethylcellulose (CMC) 100 % of control and 103 % of control | dose: 100.0 mg/kg/injection, schedule: Q04DX002 (ip), vehicle: carboxymethylcellulose (CMC) 100 % of control and 105 % of control | dose: 100.0 mg/kg/injection, schedule: Q04DX003 (ip), vehicle: carboxymethylcellulose (CMC) 92 % of control and 101 % of control | dose: 200.0 mg/kg/injection, schedule: Q01DX001 (ip), vehicle: carboxymethylcellulose (CMC) 103 % of control and 91 % of control | dose: 200.0 mg/kg/injection, schedule: Q04DX002 (ip), vehicle: carboxymethylcellulose (CMC) 98 % of control and 90 % of control | dose: 200.0 mg/kg/injection, schedule: Q04DX003 (ip), vehicle: carboxymethylcellulose (CMC) 94 % of control and 96 % of control | dose: 400.0 mg/kg/injection, schedule: Q01DX001 (ip), vehicle: carboxymethylcellulose (CMC) 103 % of control and 105 % of control | dose: 400.0 mg/kg/injection, schedule: Q01DX009 (ip), vehicle: carboxymethylcellulose (CMC) 86 % of control and 90 % of control | dose: 400.0 mg/kg/injection, schedule: Q04DX002 (ip), vehicle: carboxymethylcellulose (CMC) 86 % of control and 87 % of control | dose: 400.0 mg/kg/injection, schedule: Q04DX003 (ip), vehicle: carboxymethylcellulose (CMC) 92 % of control and 96 % of control

O=C1c2cscc2Cc2ccsc21
inactive: dose: 100.0 mg/kg/injection, schedule: Q01DX001 (ip), vehicle: saline with Tween-80 88 % of control | dose: 200.0 mg/kg/injection, schedule: Q01DX001 (ip), vehicle: saline with Tween-80 91 % of control

Cc1ccc2c(=O)n(C)c(=O)n(C)c2n1
inactive: [13] 106 % of control | [14] 106 % of control | [15] 106 % of control

NC(N)=N/N=C/c1cccnc1
inactive: dose: 15.0 mg/kg/injection, schedule: Q01DX Z (oral), vehicle: saline 97 % of control | dose: 30.0 mg/kg/injection, schedule: Q01DX Z (oral), vehicle: saline 97 % of control | dose: 60.0 mg/kg/injection, schedule: Q01DX Z (oral), vehicle: saline 97 % of control and 100 % of control | dose: 120.0 mg/kg/injection, schedule: Q01DX Z (oral), vehicle: saline 96 % of control and 107 % of control | dose: 240.0 mg/kg/injection, schedule: Q01DX Z (oral), vehicle: saline 94 % of control | dose: 480.0 mg/kg/injection, schedule: Q01DX Z (oral), vehicle: saline 89 % of control

CCN(CC)CCOc1cccc(C)c1C
inactive: dose: 25.0 mg/kg/injection, schedule: Q01DX009 (ip), vehicle: saline with Tween-80 101 % of control | [4] 101 % of control | [16] 98 % of control | [5] 102 % of control | [1] 90 % of control

Nc1cc(Cl)c2cccnc2c1O
inactive: [16] 88 % of control | dose: 75.0 mg/kg/injection, schedule: Q01DX001 (ip), vehicle: saline 98 % of control | [1] 100 % of control | dose: 150.0 mg/kg/injection, schedule: Q01DX001 (ip), vehicle: saline 96 % of control

CCOC(=O)Cn1c(C)cnc1C
inactive: [7] 112 % of control | dose: 100.0 mg/kg/injection, schedule: Q01DX009 (ip), vehicle: saline 96 % of control and 108 % of control | [13] 107 % of control | dose: 100.0 mg/kg/injection, schedule: Q04DX002 (ip), vehicle: saline 98 % of control | [10] 101 % of control | [8] 104 % of control | dose: 200.0 mg/kg/injection, schedule: Q01DX009 (ip), vehicle: saline 101 % of control and 91 % of control | [14] 100 % of control | dose: 200.0 mg/kg/injection, schedule: Q04DX002 (ip), vehicle: saline 113 % of control | [11] 99 % of control | [9] 98 % of control | dose: 400.0 mg/kg/injection, schedule: Q01DX009 (ip), vehicle: saline 96 % of control and 103 % of control | [15] 111 % of control | dose: 400.0 mg/kg/injection, schedule: Q04DX002 (ip), vehicle: saline 98 % of control | [12] 99 % of control

Cc1cc2nnc(C)n2c2ccccc12
inactive: dose: 50.0 mg/kg/injection, schedule: Q01DX001 (ip), vehicle: saline 103 % of control | [7] 103 % of control
